These results are taken from US10004701B2, “Methods and compositions for treating infection” (UNIVERSITY OF ROCHESTER, priority 2012, dated 2018).

Holding throughout (experiment): AK assay 384-well format, Prestwick library screening
One test has as its system K. pneumoniae. Type of test: cell-based, Klebsiella pneumoniae. As to conditions: Klebsiella pneumoniae, 3 h, 50 μM final drug concentration.
The next test relates to E. cloacae. Type of test: cell-based, Enterobacter cloacae. As to conditions: Enterobacter cloacae, 3 h, 50 μM final drug concentration.
The test system of test [1] is A. baumannii strain 98-37-09. Type of test: cell-based, Acinetobacter baumannii. The note with it: Acinetobacter baumannii, 983709, 3 h, 50 μM final drug concentration.
Another test concerns P. aeruginosa. Type of test: cell-based, Pseudomonas aeruginosa. As to conditions: Pseudomonas aeruginosa, 3 h, 50 μM final drug concentration.
In the next test the test system is E. faecium. Type of test: cell-based, Enterococcus faecium. The note with it: Enterococcus faecium, 3 h, 50 μM final drug concentration.
Another test deals with E. coli. Type of test: cell-based, Escherichia coli. The note with it: Escherichia coli, 3 h, 50 μM final drug concentration.
The test system of test [2] is S. aureus strain USA300-0114. Type of test: cell-based, Staphylococcus aureus. The note with it: Staphylococcus aureus, USA300, 3 h, 50 μM final drug concentration.
The mark [3] stands for this setting: cutoff for positive-scoring molecules 3-fold increase, read-out: AK-based Prestwick Library Screening Results, K. pneumoniae (fold increase in extracellular AK activity).
Where [4] appears, read: cutoff for positive-scoring molecules 3-fold increase, read-out: AK-based Prestwick Library Screening Results, E. cloacae (fold increase in extracellular AK activity).
[5] abbreviates: cutoff for positive-scoring molecules 3-fold increase, read-out: AK-based Prestwick Library Screening Results, A. baumannii (fold increase in extracellular AK activity).
The mark [6] stands for this setting: cutoff for positive-scoring molecules 3-fold increase, read-out: AK-based Prestwick Library Screening Results, P. aeruginosa (fold increase in extracellular AK activity).
The mark [7] stands for this setting: cutoff for positive-scoring molecules 3-fold increase, read-out: AK-based Prestwick Library Screening Results, E. faecium (fold increase in extracellular AK activity).
The mark [8] stands for this setting: cutoff for positive-scoring molecules 3-fold increase, read-out: AK-based Prestwick Library Screening Results, E. coli (fold increase in extracellular AK activity).
[9] abbreviates: cutoff for positive-scoring molecules 3-fold increase, read-out: AK-based Prestwick Library Screening Results, S. aureus (fold increase in extracellular AK activity).
[10] abbreviates: 384-well format, cutoff for positive-scoring molecules 3-fold increase, read-out: AK-based Prestwick Library Screening Results, K. pneumoniae (increase in extracellular AK activity).
Setting [11] is: 384-well format, cutoff for positive-scoring molecules 3-fold increase, read-out: AK-based Prestwick Library Screening Results, E. cloacae (increase in extracellular AK activity).
Setting [12] is: 384-well format, cutoff for positive-scoring molecules 3-fold increase, read-out: AK-based Prestwick Library Screening Results, A. baumannii (increase in extracellular AK activity).
Setting [13] is: 384-well format, cutoff for positive-scoring molecules 3-fold increase, read-out: AK-based Prestwick Library Screening Results, P. aeruginosa (increase in extracellular AK activity).
The mark [14] stands for this setting: 384-well format, cutoff for positive-scoring molecules 3-fold increase, read-out: AK-based Prestwick Library Screening Results, E. faecium (increase in extracellular AK activity).
[15] abbreviates: 384-well format, cutoff for positive-scoring molecules 3-fold increase, read-out: AK-based Prestwick Library Screening Results, E. coli (increase in extracellular AK activity).
[16] abbreviates: 384-well format, cutoff for positive-scoring molecules 3-fold increase, read-out: AK-based Prestwick Library Screening Results, S. aureus (increase in extracellular AK activity).
The mark [17] stands for this setting: planktonic, cutoff for positive-scoring molecules 3-fold increase, read-out: AK-based Prestwick Library Screening Results, K. pneumoniae (fold increase in extracellular AK activity).
Where [18] appears, read: planktonic, cutoff for positive-scoring molecules 3-fold increase, read-out: AK-based Prestwick Library Screening Results, E. cloacae (fold increase in extracellular AK activity).
[19] abbreviates: planktonic, cutoff for positive-scoring molecules 3-fold increase, read-out: AK-based Prestwick Library Screening Results, A. baumannii (fold increase in extracellular AK activity).
Where [20] appears, read: planktonic, cutoff for positive-scoring molecules 3-fold increase, read-out: AK-based Prestwick Library Screening Results, P. aeruginosa (fold increase in extracellular AK activity).
Where [21] appears, read: planktonic, cutoff for positive-scoring molecules 3-fold increase, read-out: AK-based Prestwick Library Screening Results, E. faecium (fold increase in extracellular AK activity).
Setting [22] is: planktonic, cutoff for positive-scoring molecules 3-fold increase, read-out: AK-based Prestwick Library Screening Results, E. coli (fold increase in extracellular AK activity).
The mark [23] stands for this setting: planktonic, cutoff for positive-scoring molecules 3-fold increase, read-out: AK-based Prestwick Library Screening Results, S. aureus (fold increase in extracellular AK activity).

Counter-ions that a name gives are not always drawn. Like-named read-outs stand apart in the source and are kept apart here.

Turning to `c1ccc2c(c1)OCC(C1=NCCN1)O2` (stereo not drawn) [Idazoxan hydrochloride], the fold induction at 50 µM in the test with K. pneumoniae (setting [3]) is 1; in the test with E. cloacae (setting [4]), 1.5; in test [1] (setting [5]), 1.1; in the test on P. aeruginosa (setting [6]) it was 1.2; with E. faecium (setting [7]) it was 1; in the test on E. coli (setting [8]), 1.1. In addition, the fold induction at 50 µM in test [2] (setting [9]) turned out to be 1.1.

Take `O=c1[nH]c(=O)n([C@H]2C[C@H](O)[C@@H](CO)O2)cc1I` [Idoxuridine]: the fold induction at 50 µM was 0.6 in the test with K. pneumoniae (setting [10]); 0.8 with E. cloacae (setting [11]); 0.7 in test [1] (setting [12]); 0.6 in the test on P. aeruginosa (setting [13]); 1 in the test on E. faecium (setting [14]); 0.7 in the test with E. coli (setting [15]). In test [2] (setting [16]), the fold induction at 50 µM stood at 0.7.

On to `O=P1(NCCCl)OCCCN1CCCl` (stereo not drawn) [Ifosfamide], for which the fold induction at 50 µM was found to be 0.7 in the test with K. pneumoniae (setting [17]); 1.4 in the test on E. cloacae (setting [18]); 0.8 in test [1] (setting [19]); 0.9 in the test with P. aeruginosa (setting [20]); 0.8 in the test on E. faecium (setting [21]); 9 in the test with E. coli (setting [22]). Further, the fold induction at 50 µM in test [2] (setting [23]) was found to be 0.8.

Turning to `O=C(NCNC(=O)NC1C(=O)NC(=O)N1CO)NC1C(=O)NC(=O)N1CO` (stereo not drawn) [Imidurea], the fold induction at 50 µM with K. pneumoniae (planktonic K. pneumoniae, […], read-out: AK-based Prestwick library screening result, K. pneumoniae (fold increase in extracellular AK activity)) amounted to 0.7; with E. cloacae (planktonic E. cloacae, […], read-out: AK-based Prestwick library screening result, E. cloacae (fold increase in extracellular AK activity)), 1.2; in test [1] (planktonic A. baumannii, […], read-out: AK-based Prestwick library screening result, A. baumannii (fold increase in extracellular AK activity)), 0.8; in the test with P. aeruginosa (planktonic P. aeruginosa, […], read-out: AK-based Prestwick library screening result, P. aeruginosa (fold increase in extracellular AK activity)), 0.8; in the test with E. faecium (planktonic E. faecium, […], read-out: AK-based Prestwick library screening result, E. faecium (fold increase in extracellular AK activity)) it was 0.9; in the test with E. coli (planktonic E. coli, […], read-out: AK-based Prestwick library screening result, E. coli (fold increase in extracellular AK activity)), 0.9. In addition, in test [2] (planktonic S. aureus, […], read-out: AK-based Prestwick library screening result, S. aureus (fold increase in extracellular AK activity)), the fold induction at 50 µM was found to be 0.7.

As to `C[C@@H](O)[C@H]1C(=O)N2C(C(=O)O)=C(SCCN=CN)C[C@H]12` [Imipenem], the fold induction at 50 µM turned out to be 1.7 with K. pneumoniae (planktonic K. pneumoniae, cutoff for positive-scoring molecules 3-fold increase, read-out: AK-based Prestwick Library Screening Results, K. pneumoniae (increase in extracellular AK activity)); 2.4 in the test with E. cloacae (planktonic E. cloacae, cutoff for positive-scoring molecules 3-fold increase, read-out: AK-based Prestwick Library Screening Results, E. cloacae (increase in extracellular AK activity)); 1.2 in test [1] (planktonic A. baumannii, cutoff for positive-scoring molecules 3-fold increase, read-out: AK-based Prestwick Library Screening Results, A. baumannii (increase in extracellular AK activity)); 1 with P. aeruginosa (planktonic P. aeruginosa, cutoff for positive-scoring molecules 3-fold increase, read-out: AK-based Prestwick Library Screening Results, P. aeruginosa (increase in extracellular AK activity)); 0.9 in the test on E. faecium (planktonic E. faecium, cutoff for positive-scoring molecules 3-fold increase, read-out: AK-based Prestwick Library Screening Results, E. faecium (increase in extracellular AK activity)); 12.1 in the test with E. coli (planktonic E. coli, cutoff for positive-scoring molecules 3-fold increase, read-out: AK-based Prestwick Library Screening Results, E. coli (increase in extracellular AK activity)). Also, the fold induction at 50 µM in test [2] (planktonic S. aureus, cutoff for positive-scoring molecules 3-fold increase, read-out: AK-based Prestwick Library Screening Results, S. aureus (increase in extracellular AK activity)) stood at 2.5.

`CC1Cc2ccccc2N1NC(=O)c1ccc(Cl)c(S(N)(=O)=O)c1` (stereo not drawn) [Indapamide]: the fold induction at 50 µM came out at 1.1 in the test with K. pneumoniae (planktonic K. pneumoniae, 384-well, cutoff for positive-scoring molecules 3-fold increase, read-out: AK-based Prestwick Library Screening Results: K. pneumoniae (increase in extracellular AK activity)); 1.7 in the test on E. cloacae (planktonic E. cloacae, 384-well, cutoff for positive-scoring molecules 3-fold increase, read-out: AK-based Prestwick Library Screening Results: E. cloacae (increase in extracellular AK activity)); 1 in test [1] (planktonic A. baumannii, 384-well, cutoff for positive-scoring molecules 3-fold increase, read-out: AK-based Prestwick Library Screening Results: A. baumannii (increase in extracellular AK activity)); 1.1 with P. aeruginosa (planktonic P. aeruginosa, 384-well, cutoff for positive-scoring molecules 3-fold increase, read-out: AK-based Prestwick Library Screening Results: P. aeruginosa (increase in extracellular AK activity)); 1.1 in the test on E. faecium (planktonic E. faecium, 384-well, cutoff for positive-scoring molecules 3-fold increase, read-out: AK-based Prestwick Library Screening Results: E. faecium (increase in extracellular AK activity)); 1.1 in the test with E. coli (planktonic E. coli, 384-well, cutoff for positive-scoring molecules 3-fold increase, read-out: AK-based Prestwick Library Screening Results: E. coli (increase in extracellular AK activity)). Also, the fold induction at 50 µM in test [2] (planktonic S. aureus, 384-well, cutoff for positive-scoring molecules 3-fold increase, read-out: AK-based Prestwick Library Screening Results: S. aureus (increase in extracellular AK activity)) is 1.

For `COc1ccc2c(c1)c(CC(=O)O)c(C)n2C(=O)c1ccc(Cl)cc1` [Indomethacin], the fold induction at 50 µM in the test on K. pneumoniae (setting [10]) was determined as 0.8; in the test on E. cloacae (setting [11]), 1.2; in test [1] (setting [12]), 1; in the test on P. aeruginosa (setting [13]), 0.9; with E. faecium (setting [14]), 0.9; in the test on E. coli (setting [15]), 0.9. The fold induction at 50 µM in test [2] (setting [16]) was 0.6.

`CC(C(=O)O)c1ccc(N2Cc3ccccc3C2=O)cc1` (stereo not drawn) [Indoprofen]: the fold induction at 50 µM turned out to be 0.1 in the test on K. pneumoniae (setting [17]); 1.5 with E. cloacae (setting [18]); 0.2 in test [1] (setting [19]); 0.2 with P. aeruginosa (setting [20]); 0.1 in the test with E. faecium (setting [21]); 0.2 in the test with E. coli (setting [22]). Further, the fold induction at 50 µM in test [2] (setting [23]) amounted to 0.2.

Consider `O=C(CCCCC(=O)Nc1c(I)cc(I)c(C(=O)O)c1I)Nc1c(I)cc(I)c(C(=O)O)c1I` [Iodipamide], for which the fold induction at 50 µM with K. pneumoniae (setting [3]) is 1; with E. cloacae (setting [4]) it was 1.6; in test [1] (setting [5]) it was 1.2; in the test on P. aeruginosa (setting [6]), 1.1; with E. faecium (setting [7]), 1; with E. coli (setting [8]) it was 1.2. Further, in test [2] (setting [9]), the fold induction at 50 µM was 1.
